Where two headings read alike, the source gives them in different places.
Tests used:
human NK-3 receptor [1] = target: T1, human NK-3 receptor (Homo sapiens (Human), UniProt P29371); assay: Aequorin functional assay with human NK-3 receptor (antagonist testing); type: cell-based; conditions: CHO cells expressing human NK-3 receptor; agonist NKA at EC80 (3 nM); read-out: Functional assay: Aequorin assay with human NK-3 receptor hNK-3 - AEQ (antagonist IC50)
Experimental: Aequorin Assay with Human NK-3 Receptor
Changes in intracellular calcium levels are a recognized indicator of G protein-coupled receptor activity. The efficacy of compounds of the invention to inhibit NKA-mediated NK-3 receptor activation was assessed by an in vitro Aequorin functional assay. Chinese Hamster Ovary recombinant cells expressing the human NK-3 receptor and a construct that encodes the photoproteinapoaequorin were used for this assay. In the presence of the cofactor coelenterazine, apoaequorin emits a measurable luminescence that is proportional to the amount of intracellular (cytoplasmic) free calcium.
The antagonist activity of compounds of the invention is measured following pre-incubation (3 minutes) of the compound (at various concentrations) with the cells, followed by addition of the reference agonist (NKA) at a final concentration equivalent to the EC80 (3 nM) and recording of emitted light (FDSS 6000 Hamamatsu) over the subsequent 90-second period. The intensity of the emitted light is integrated using the reader software. Compound antagonist activity is measured based on the concentration-dependent inhibition of the luminescence response to the addition of Neurokinin A.
The IC50 values shown in Table 2 indicate that compounds of the invention are potent NK-3 antagonist compounds.

human NK-3 receptor [2] = target: T1, human NK-3 receptor; assay: 3H-SB222200 binding competition assay with human NK-3 receptor
Experimental: The affinity of compounds of the invention for the human NK-3 receptor was determined by measuring the ability of compounds of the invention to competitively and reversibly displace a well-characterized NK-3 radioligand in a concentration-dependent manner.
^3H-SB222200 Binding Competition Assay with Human NK-3 Receptor
The ability of compounds of the invention to inhibit the binding of the NK-3 receptor selective antagonist ^3H-SB222200 was assessed by an in vitro radioligand binding assay. Membranes were prepared from Chinese hamster ovary recombinant cells stably expressing the human NK-3 receptor. The membranes were incubated with 5 nM ^3H-SB222200 (ARC) in a HEPES 25 mM/NaCl 0.1M/CaCl2 1 mM/MgCl2 5 mM/BSA 0.5%/Saponin 10 μg/ml buffer at pH 7.4 and various concentrations of compounds of the invention. The amount of ^3H-SB222200 bound to the receptor was determined after filtration by the quantification of membrane associated radioactivity using the TopCount-NXT reader (Packard).

human NK-1 receptor = human NK-1 receptor (Homo sapiens (Human), UniProt P25103); assay: Selectivity binding assay, human NK-1 ([3H] substance P); conditions: CHO cell membranes; 2 nM [3H] substance P; read-out: hNK-1 (Ki)
Experimental: (§1) Selectivity of the compounds of the invention was determined over the other human NK receptors, namely NK-1 and NK-2 receptors.
The affinity of compounds of the invention for the NK-1 receptor was evaluated in CHO recombinant cells which express the human NK-1 receptor. Membrane suspensions were prepared from these cells. The following radioligand: [^3H] substance P (PerkinElmer Cat#NET111520) was used in this assay. Binding assays were performed in a 50 mM Tris/5 mM MnCl2/150 mM NaCl/0.1% BSA at pH 7.4. Binding assays consisted of 25 μl of membrane suspension (approximately 5 μg of protein/well in a 96 well plate), 50 μl of compound or reference ligand (Substance P) at increasing concentrations (diluted in assay buffer) and 2 nM [^3H] substance P. The plate was incubated 60 min at 25° C. in a water bath and then filtered over GF/C filters (Perkin Elmer, 6005174, presoaked in 0.5% PEI for 2 h at room temperature) with a Filtration unit (Perkin Elmer). The radioactivity retained on the filters was measured by using the TopCount-NXT reader (Packard). Competition curves were obtained for compounds of the invention and the concentrations of compounds which displaced 50% of bound radioligand (IC50) were determined and then apparent inhibition constant Ki values were calculated by the following equation: Ki=IC50/(1+[L]/KD) where [L] is the concentration of free radioligand and KD is its dissociation constant at the receptor, derived from saturation binding experiments (Cheng and Prusoff, 1973).

human NK-2 receptor = human NK-2 receptor (Homo sapiens (Human), UniProt P21452); assay: Selectivity binding assay, human NK-2 ([125I]-Neurokinin A); conditions: CHO cell membranes; 0.1 nM [125I]-Neurokinin A; read-out: hNK-2 (Ki)
Experimental: as §1
The affinity of compounds of the invention for the NK-2 receptor was evaluated in CHO recombinant cells which express the human NK-2 receptor. Membrane suspensions were prepared from these cells. The following radioligand [^125I]-Neurokinin A (PerkinElmer Cat#NEX252) was used in this assay. Binding assays were performed in a 25 mM HEPES/1 mM CaCl2/5 mM MgCl2/0.5% BSA/10 μg/ml saponin, at pH 7.4. Binding assays consisted of 25 μl of membrane suspension (approximately 3.75 μg of protein/well in a 96 well plate), 50 μl of compound or reference ligand (Neurokinin A) at increasing concentrations (diluted in assay buffer) and 0.1 nM [^125I]-Neurokinin A. The plate was incubated 60 min at 25° C. in a water bath and then filtered over GF/C filters (Perkin Elmer, 6005174, presoaked in assay buffer without saponine for 2 h at room temperature) with a Filtration unit (Perkin Elmer). The radioactivity retained on the filters was measured by using the TopCount-NXT reader (Packard). Competition curves were obtained for compounds of the invention and the concentrations of compounds which displaced 50% of bound radioligand (IC50) were determined and then apparent inhibition constant Ki values were calculated by the following equation: Ki=IC50/(1+[L]/KD) where [L] is the concentration of free radioligand and KD is its dissociation constant at the receptor, derived from saturation binding experiments (Cheng and Prusoff, 1973).

plasma protein = assay: Determination of plasma protein binding (rapid equilibrium dialysis); type: in vitro ADME; conditions: 4 hours at 37° C.
Source text: Determination of Plasma Protein Binding
The pharmacokinetic and pharmacodynamic properties of chemicals/drugs are largely a function of the reversible binding of chemicals to plasma or serum proteins. Generally, only the unbound or “free fraction” of a drug is available for diffusion or transport across cell membranes, and for interaction with a pharmacological/toxicological target. Consequently, the extent of the plasma protein binding (PPB) of a compound influences its action as well as its distribution and elimination.
The determination of plasma protein binding (PPB) of a compound is enabled by equilibrium dialysis, an accepted and standard method for reliable estimation of the non-bound drug fraction in plasma. RED (Rapid Equilibrium Dialysis) device insert is made of two side-by-side chambers separated by an O-ring-sealed vertical cylinder of dialysis membrane (MWCO˜8,000). Plasma containing drug (at 5 μM or blood concentrations otherwise corresponding to efficacious doses, if known) is added to one chamber while buffer is added to the second. After 4 hours incubation at 37° C. under shaking, an aliquot is removed from each chamber and analyzed by a LC-MS/MS procedure enables the determination of both free and bound drug.
The percentages provided in Table 4 represent for the compounds of the invention the bound drug fraction to the plasma protein. The “free fraction” may be calculated as 100%−% rPPB (i.e. the complementary percentage of that disclosed in Table 4, corresponding to the drug concentration that is unbound and therefore available to engage biological target and elicit pharmacological activity).

[3] = CHO cell membranes, 5 nM 3H-SB222200, Table 2, read-out: Competitive binding assay with human NK-3 receptor hNK-3 (Ki)
[4] = Table 3 (selectivity table), read-out: hNK-3 (Ki)

T1 sequence (P29371 whole entry): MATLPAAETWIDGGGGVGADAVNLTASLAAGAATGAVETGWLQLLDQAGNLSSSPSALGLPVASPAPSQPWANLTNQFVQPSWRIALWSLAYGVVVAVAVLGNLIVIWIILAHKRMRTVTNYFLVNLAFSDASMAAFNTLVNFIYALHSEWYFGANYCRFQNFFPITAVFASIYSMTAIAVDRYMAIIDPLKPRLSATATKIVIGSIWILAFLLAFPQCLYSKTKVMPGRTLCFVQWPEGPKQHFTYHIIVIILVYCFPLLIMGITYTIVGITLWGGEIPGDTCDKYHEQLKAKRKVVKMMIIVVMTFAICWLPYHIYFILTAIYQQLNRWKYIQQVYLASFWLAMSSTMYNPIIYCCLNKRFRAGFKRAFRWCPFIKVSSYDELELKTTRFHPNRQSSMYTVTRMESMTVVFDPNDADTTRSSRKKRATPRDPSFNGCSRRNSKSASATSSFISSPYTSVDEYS
Sequence of human NK-2 receptor (P21452 whole entry): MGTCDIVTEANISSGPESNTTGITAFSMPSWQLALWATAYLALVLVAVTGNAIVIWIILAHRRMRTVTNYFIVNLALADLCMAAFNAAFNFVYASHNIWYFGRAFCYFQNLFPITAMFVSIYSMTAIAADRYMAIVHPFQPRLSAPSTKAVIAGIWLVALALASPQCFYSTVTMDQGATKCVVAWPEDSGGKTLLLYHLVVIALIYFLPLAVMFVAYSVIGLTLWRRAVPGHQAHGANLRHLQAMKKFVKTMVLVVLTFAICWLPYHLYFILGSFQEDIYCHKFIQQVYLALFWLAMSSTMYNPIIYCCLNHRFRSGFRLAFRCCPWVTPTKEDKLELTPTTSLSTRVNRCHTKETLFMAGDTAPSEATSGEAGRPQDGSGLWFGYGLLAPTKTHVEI
Sequence of human NK-1 receptor (P25103 whole entry): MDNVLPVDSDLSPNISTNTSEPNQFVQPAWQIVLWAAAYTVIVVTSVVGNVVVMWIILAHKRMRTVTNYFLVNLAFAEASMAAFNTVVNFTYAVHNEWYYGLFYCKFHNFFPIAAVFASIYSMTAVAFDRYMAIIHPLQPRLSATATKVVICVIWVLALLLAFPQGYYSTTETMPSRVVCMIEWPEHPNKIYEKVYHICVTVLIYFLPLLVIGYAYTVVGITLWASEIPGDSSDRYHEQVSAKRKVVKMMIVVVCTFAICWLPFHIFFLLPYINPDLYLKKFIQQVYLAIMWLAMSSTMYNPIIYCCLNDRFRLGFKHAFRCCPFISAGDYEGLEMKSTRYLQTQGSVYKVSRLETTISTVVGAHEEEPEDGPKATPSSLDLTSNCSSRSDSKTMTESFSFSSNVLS

Compound	IC50 (human NK-3 receptor [1])	Ki (human NK-3 receptor [2]; [3])	Ki (human NK-3 receptor [2]; [4])	Ki (human NK-1 receptor)	Ki (human NK-2 receptor)	Exposure (% rPPB), bound drug fraction to the plasma protein (plasma protein)
Cc1ccc(-c2nnc3n2CCN(C(=O)c2ccc(Cl)c(F)c2)[C@@H]3C)o1 [Compound 9, (R)-(4-chloro-3-fluorophenyl)(8-methyl-3-(5-methylfuran-2-yl)-5,6-dihydro-[1,2,4]triazolo[4,3-a]pyrazin-7(8H)-yl)methanone]	53 nM	38 nM	38 nM	13000 nM	14000 nM	68%
Cc1ccc(-c2nnc3n2CCN(C(=O)c2cc(F)c(F)c(F)c2)[C@@H]3C)o1 [Compound 7, (R)-(8-methyl-3-(5-methylfuran-2-yl)-5,6-dihydro-[1,2,4]triazolo[4,3-a]pyrazin-7(8H)-yl)(3,4,5-trifluorophenyl)methanone]	57 nM	33 nM	33 nM	27000 nM	21000 nM	26%
C[C@@H]1c2nnc(-c3csc(C(F)(F)F)n3)n2CCN1C(=O)c1ccc(Cl)cc1 [Compound 18, (R)-(4-chlorophenyl)(8-methyl-3-(2-(trifluoromethyl)thiazol-4-yl)-5,6-dihydro-[1,2,4]triazol[4,3-a]pyrazin-7(8H)-yl)methanone]	31 nM	21 nM	21 nM	15000 nM	5900 nM	78%
C[C@@H]1c2nnc(-c3csc(C(F)(F)F)n3)n2CCN1C(=O)c1cc(F)c(F)c(F)c1 [Compound 15, (R)-(8-methyl-3-(2-(trifluoromethyl)thiazol-4-yl)-5,6-dihydro-[1,2,4]triazolo[4,3-a]pyrazin-7(8H)-yl)(3,4,5-trifluorophenyl)methanone]	24 nM	13 nM	13 nM	24000 nM	3500 nM	60%
Cc1ccc(-c2nnc3n2CCN(C(=O)c2ccc(F)c(Cl)c2)[C@@H]3C)o1 [Compound 8, (R)-(3-chloro-4-fluorophenyl)(8-methyl-3-(5-methylfuran-2-yl)-5,6-dihydro-[1,2,4]triazolo[4,3-a]pyrazin-7(8H)-yl)methanone]	62 nM	44 nM	44 nM	18000 nM	9100 nM	47%
C[C@@H]1c2nnc(-c3csc(C(F)(F)F)n3)n2CCN1C(=O)c1cc(F)c(F)c(F)c1F [Compound 12, (R)-(8-methyl-3-(2-(trifluoromethyl)thiazol-4-yl)-5,6-dihydro-[1,2,4]triazolo[4,3-a]pyrazin-7(8H)-yl)(2,3,4,5-tetrafluorophenyl)methanone]	33 nM	29 nM	29 nM	19000 nM	4700 nM	67%
Cc1ccc(-c2nnc3n2CCN(C(=O)c2ccc(Cl)c(Cl)c2)[C@@H]3C)o1 [Compound 11, (R)-(3,4-dichlorophenyl)(8-methyl-3-(5-methylfuran-2-yl)-5,6-dihydro-[1,2,4]triazolo[4,3-a]pyrazin-7(8H)-yl)methanone]	36 nM	27 nM	27 nM	6900 nM	4200 nM	76%
Cc1ccc(-c2nnc3n2CCN(C(=O)c2ccc(Cl)cc2)[C@@H]3C)o1 [Compound 10, (R)-(4-chlorophenyl)(8-methyl-3-(5-methylfuran-2-yl)-5,6-dihydro-[1,2,4]triazolo[4,3-a]pyrazin-7(8H)-yl)methanone]	74 nM	36 nM	36 nM	25000 nM	23000 nM	56%
C[C@@H]1c2nnc(-c3csc(C(F)(F)F)n3)n2CCN1C(=O)c1ccc(F)c(F)c1F [Compound 14, (R)-(8-methyl-3-(2-(trifluoromethyl)thiazol-4-yl)-5,6-dihydro-[1,2,4]triazolo[4,3-a]pyrazin-7(8H)-yl)(2,3,4-trifluorophenyl)methanone]	59 nM	40 nM	40 nM	28000 nM	15000 nM	69%
Cc1nc(-c2nnc3n2CCN(C(=O)c2ccc(F)cc2)[C@@H]3C)cs1 [Compound 2, (R)-(4-fluorophenyl)(8-methyl-3-(2-methylthiazol-4-yl)-5,6-dihydro-[1,2,4]triazolo[4,3-a]pyrazin-7(8H)-yl)methanone]	160 nM	100 nM	100 nM	> 30000 nM	> 30000 nM	17%
Cc1ccc(-c2nnc3n2CCN(C(=O)c2cc(F)c(F)c(F)c2F)[C@@H]3C)o1 [Compound 4, (R)-(8-methyl-3-(5-methylfuran-2-yl)-5,6-dihydro-[1,2,4]triazolo[4,3-a]pyrazin-7(8H)-yl)(2,3,4,5-tetrafluorophenyl)methanone]	72 nM	52 nM	52 nM	> 30000 nM	30000 nM	30%

From patent US9840508B2, “N-acyl-(3-substituted)-(8-methyl)-5,6-dihydro-[1,2,4]triazolo[4,3-a] pyrazines as selective NK-3 receptor antagonists, pharmaceutical composition, methods for use in NK-3 receptor-mediated disorders” (EUROSCREEN SA, priority 2013, dated 2017)
